Measured values as given in patent publication US6358883B1, “Pesticidal and parasiticidal use of 1-aryl-1-(substituted thio, sulfinyl and sulfonyl)-2-nitroethane compounds” (American Cyanamid Company, priority 1998, dated 2002).

How the values were obtained:
Type in all cases: in vivo
[1] = test system: Aphis gossypii, cotton aphid (CA); assay: Cotton aphid (CA) cotyledon dip test; set-up: key: 0 = no effect; 1 = 10-25% kill; 2 = 26-35% kill; 3 = 36-45% kill; 4 = 46-55% kill; 5 = 56-65% kill; 6 = 66-75% kill; 7 = 76-85% kill; 8 = 86-99% kill; 9 = 100% kill; conditions: mortality after 5 days
Procedure, shortened: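 Cotyledon-stage cotton plants infested overnight via a heavily infested leaf, then dipped in test solution (compound in 35% acetone/water, diluted with water) and dried. Mortality counted after 5 days.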

[2] = test system: M. incognita (Root Knot Nematode) larvae; assay: Evaluation of test compounds against M. incognita larvae in microtiter plate wells (movement score); conditions: larvae scored for movement after 20-24 hours; note: key: A score of '9' indicates inactive worms with a straight, sticklike morphology; A score of '8' indicates inactive worms with a limp, curled or curved morphology; A score of '7' indicates dead/paralyzed worms after 72 hours
Procedure, shortened: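 Newly emerged M. incognita larvae in S Medium (buffered salt solution), 50-65 worms per well, exposed to test compounds in sealed microtiter wells. Movement scored after 20-24 h incubation; wells with obviously dead/paralyzed larvae scored positive. A score of "7" denotes dead/paralyzed worms after […].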

[3] = test system: Tetranychus urticae (OP-resistant strain), 2-spotted spider mite (TSM); assay: 2-spotted spider mite (TSM) plant dip test; set-up: key: 0 = no effect; 1 = 10-25% kill; 2 = 26-35% kill; 3 = 36-45% kill; 4 = 46-55% kill; 5 = 56-65% kill; 6 = 66-75% kill; 7 = 76-85% kill; 8 = 86-99% kill; 9 = 100% kill; conditions: mortality after 2 days
Procedure, shortened: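 OP-resistant mites (~100 per leaf) were transferred onto Sieva lima bean primary leaves about 2 h before treatment. Infested plants were dipped for 3 s in compound from a 10,000 ppm stock in 35% acetone/water, diluted with water. Mortality was counted after 2 days.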

[4] = test system: Spodoptera eridania, eggs-southern armyworm (SAW-Eggs); assay: Southern armyworm eggs (SAW-Eggs) treated diet test; set-up: key: 0 = no effect; 1 = 10-25% kill; 2 = 26-35% kill; 3 = 36-45% kill; 4 = 46-55% kill; 5 = 56-65% kill; 6 = 66-75% kill; 7 = 76-85% kill; 8 = 86-99% kill; 9 = 100% kill; conditions: mortality after 7 days
Procedure, shortened: (§1)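 Compounds dissolved at 10,000 ppm in 35% acetone/water, diluted with water, applied to artificial diet in wells and dried. Southern corn rootworm or southern armyworm eggs placed on treated diet under vented covers; mortality counted after 7 days.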

[5] = test system: C. elegans (Bristol strain); assay: Evaluation of test compounds against C. elegans (motility, 96-well plate); set-up: key: 9=complete kill in 4 hours; 8=complete kill in 24 hours; 7=markedly reduced motility in approximately 95% of worms in 24 hours; 0=normal motility, same as controls; conditions: motility at 4 and 24 hours
Procedure, shortened: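 Bristol-strain C. elegans in Na buffer added to wells containing dried compound (applied in 80% acetone) and incubated at 20 °C. Motility of adults and larvae scored subjectively but semi-quantitatively under a dissecting microscope at 4 and 24 h after immersion, plates tapped before reading.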

[6] = test system: Spodoptera eridania, 2nd instar larvae, southern armyworm (SAW); assay: Southern armyworm (SAW) leaf dip test; set-up: key: 0 = no effect; 1 = 10-25% kill; 2 = 26-35% kill; 3 = 36-45% kill; 4 = 46-55% kill; 5 = 56-65% kill; 6 = 66-75% kill; 7 = 76-85% kill; 8 = 86-99% kill; 9 = 100% kill
Procedure, shortened: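 Compound is dissolved at 10,000 ppm in 35% acetone/water, then diluted with water. Lima bean leaves are dipped for 3 seconds, dried and placed with ten 2nd instar larvae on damp filter paper. Mortality, reduced feeding and molting interference are scored at 5 days.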

[7] = test system: Diabrotica undecimpunctata howardi, eggs-southern corn rootworm (SCR-Eggs); assay: Southern corn rootworm eggs (SCR-Eggs) treated diet test; set-up: key: 0 = no effect; 1 = 10-25% kill; 2 = 26-35% kill; 3 = 36-45% kill; 4 = 46-55% kill; 5 = 56-65% kill; 6 = 66-75% kill; 7 = 76-85% kill; 8 = 86-99% kill; 9 = 100% kill; conditions: mortality after 7 days
Procedure, shortened: as §1

[8] = test system: Diabrotica virgifera virgifera Leconte, 2nd instar western corn rootworm (WCR); assay: Western corn rootworm (WCR) soil test; set-up: key: 0 = no effect; 1 = 10-25% kill; 2 = 26-35% kill; 3 = 36-45% kill; 4 = 46-55% kill; 5 = 56-65% kill; 6 = 66-75% kill; 7 = 76-85% kill; 8 = 86-99% kill; 9 = 100% kill
Procedure, shortened: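 Compound in 35% acetone/water applied to talc at 1.25 mg active ingredient per jar (about 50 kg/ha), solvent evaporated, then mixed with millet seed and moist soil. Ten 2nd-instar larvae per jar; mortality counted after 5 days, missing larvae scored dead.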

SMILES | CA (300 ppm) rating [1] | M. incognita (150 ppm) score [2] | TSM (300 ppm) rating [3] | SAW Eggs (300 ppm) rating [4] | Rating Against C. elegans (150 ppm) [5] | SAW (300 ppm) rating [6] | SCR Eggs (1000 ppm) rating [7] | WCR (50 ppm) rating [8]
CCCCC(CC)COC(=O)CSC(C[N+](=O)[O-])c1cccc(OC)c1 (stereo not shown) [Example 59] | 0 | 0 | 0 | 0 | 0 | 0 | 0 | 0
COc1cccc(C(C[N+](=O)[O-])SCc2ccccc2)c1 (stereo not shown) [Example 60] | 0 | 0 | 0 | 0 | 0 | 0 | 0 | 0
CCCSC(C[N+](=O)[O-])c1cccc(OC)c1 (stereo not shown) [Example 61] | 5 (5 = 56-65% kill) | 0 | 0 | 0 | 7 | 0 | 0 | 0
C=CCSC(C[N+](=O)[O-])c1ccc(OC(F)(F)F)cc1 (stereo not shown) [Example 123] | 0 | 0 | 0 | 8 (8 = 86-99% kill) | 7 | 0 | 0 | 5 (5 = 56-65% kill)
O=[N+]([O-])CC(SCc1ccccc1)c1ccc(OC(F)(F)F)cc1 (stereo not shown) [Example 124] | 0 | 0 | 0 | 9 (9 = 100% kill) | 7 | 0 | 0 | 0
C=CCSC(C[N+](=O)[O-])c1ccc2ccccc2c1 (stereo not shown) [Example 125] | 0 | 0 | 0 | 0 | 0 | 0 | 0 | 0
O=C(O)CSC(C[N+](=O)[O-])c1ccc(OC(F)(F)F)cc1 (stereo not shown) [Example 127] | 0 | 9 | 0 | 0 | 9 | 0 | 0 | 0
O=C(O)CSC(C[N+](=O)[O-])c1cccc([N+](=O)[O-])c1 (stereo not shown) [Example 128] | 0 | 9 | 0 | 0 | 9 | 0 | 0 | 0
C=CCSC(C[N+](=O)[O-])c1cccc([N+](=O)[O-])c1 (stereo not shown) [Example 129] | 0 | 0 | 0 | 0 | 0 | 0 | 0 | 0
O=C(O)CSC(C[N+](=O)[O-])c1c(Cl)cccc1Cl (stereo not shown) [Example 130] | 0 | 9 | 0 | 0 | 9 | 0 | 0 | 3 (3 = 36-45% kill)
COC(=O)CSC(C[N+](=O)[O-])c1c(Cl)cccc1Cl (stereo not shown) [Example 131] | 0 | 9 | 0 | 0 | 7 | 0 | 0 | 0
CCOC(=O)CSC(C[N+](=O)[O-])c1c(Cl)cccc1Cl (stereo not shown) [Example 132] | 0 | 0 | 0 | 9 (9 = 100% kill) | 0 | 0 | 9 (9 = 100% kill) | 0
CCCOC(=O)CSC(C[N+](=O)[O-])c1c(Cl)cccc1Cl (stereo not shown) [Example 133] | 0 | 0 | 0 | 0 | 0 | 0 | 9 (9 = 100% kill) | 0
CCCCOC(=O)CSC(C[N+](=O)[O-])c1c(Cl)cccc1Cl (stereo not shown) [Example 134] | 0 | 0 | 0 | 0 | 0 | 0 | 0 | 0
O=C(CSC(C[N+](=O)[O-])c1c(Cl)cccc1Cl)OCc1ccccc1 (stereo not shown) [Example 135] | 0 | 0 | 0 | 0 | 0 | 0 | 9 (9 = 100% kill) | 0
CCCSC(C[N+](=O)[O-])c1c(Cl)cccc1Cl (stereo not shown) [Example 136] | 0 | 0 | 0 | 0 | 0 | 0 | 0 | 0
O=[N+]([O-])CC(SCc1ccccc1)c1c(Cl)cccc1Cl (stereo not shown) [Example 137] | 0 | 0 | 0 | 9 (9 = 100% kill) | 0 | 0 | 9 (9 = 100% kill) | 0
COC(=O)CSC(C[N+](=O)[O-])c1cccnc1 (stereo not shown) [Example 171] | 0 | 9 | 0 | 0 | 7 | 0 | 0 | 0
CCOC(=O)CSC(C[N+](=O)[O-])c1cccnc1 (stereo not shown) [Example 172] | 0 | 9 | 0 | 0 | 8 | 0 | 0 | 0
CCCCOC(=O)CSC(C[N+](=O)[O-])c1cccnc1 (stereo not shown) [Example 173] | 0 | 9 | 0 | 0 | 8 | 0 | 0 | 0
